Test [1] concerns the target T1, XcMetRS (WT) (Xanthomonas citri pv. citri, UniProt Q8PMP0). Kind of test: XcMetRS enzyme kinetic assay (coupled fluorometric AMP/resorufin assay). Type of test: biochemical. Also noted: His tag with TEV site (from pET28-TEV vector) (N); made in house; host or cells: E. coli BL21(DE3). The source says:
Similarly, vmax^app, K’, and Hill slope (h) were obtained for ATP using the equation v = (vmax^app x [S]^h)/(K’ + [S]^h). The catalytic rate constant (kcat) was estimated by the equation kcat = vmax^app/Et, where Et is the enzyme concentration in the assay.

Test [2] addresses T1, XcMetRS (WT). The class given is binding. The arrangement: His tag with TEV site (from pET28-TEV vector) (N); made in house; host or cells: E. coli BL21(DE3). How it is done:
All wells contained 2% DMSO used to prepare stock solutions of REP3123 and REP8839. Protein unfolding was monitored on a 7500 Real-Time PCR System (Applied Biosystems) cycler by measuring fluorescence (λEmission = 580 nm) during 71 cycles starting at 25 °C, with a one-degree Celsius increment at each cycle. Experimental data points were normalized and adjusted to the equation y = ymin + ((ymax − ymin)/(1 + e^(Tm − T)/S)), where ymax and ymin are normalized fluorescence values, Tm is the melting temperature, T is the temperature, and S is the slope.

For the next test, the system named is X. citri strain 306. Briefly: Antibiogram, agar disc-diffusion assay. The note with it: X. citri strain 306, LBON-agar, 24 h at 28 °C.
The subject of another test is X. citri 306. Kind of test: X. citri growth inhibition, broth microdilution with resazurin. The following applies: for MIC (minimum inhibitory concentration): X. citri 306, LBON, 28 °C, 24 h, at least 90% growth inhibition; for EC50 / MIC: Xanthomonas citri, 306, 24 h; for EC50: read-out: EC50 (growth inhibition); for MIC: read-out: MIC (minimum inhibitory concentration).

For test [3], the target named is coupled enzyme system (ScAMD, CjIMPDH, diaphorase). Briefly: Control: inhibition of the coupled enzyme system used to detect AMP production. The following applies: read-out: IC50 on coupled enzyme system, without XcMetRS step.
Experimental: Inhibition studies using the XcMetRS-ScAMD-CjIMPDH-diaphorase–coupled assay (Fig. S2) were performed at various concentrations (half-log serial dilutions starting at 100 μM) of the inhibitors in anhydrous dimethyl sulfoxide (DMSO). Assays were performed at 25 °C in black 384-well microplates in 25-μl final volume in 0.1 M Tris HCl, pH 7.5, 0.15 M KCl, 10 mM MgCl2, and 0.01% Triton X-100.
Values correspond to measurements of four independent experiments and error bars denote standard deviations.
A further test deals with T2, XcMetRS (Xanthomonas citri pv. citri, UniProt Q8PMP0).
T2 construct: His tag with TEV site (from pET28-TEV vector) (N); made in house; host or cells: E. coli BL21(DE3)
Briefly: Isothermal titration calorimetry (ITC). Type of test: binding. The following applies: for Kd: 20 °C. Here is the method: ITC measurements were performed on a MicroCal VP-ITC calorimeter equipped with a VPViewer2000 software for data acquisition at the Spectroscopy and Calorimetry Lab facility (LEC) from the Brazilian Bioscience National Laboratory/Brazilian Centre for Research in Energy and Materials (LNBio/CNPEM). Purified XcMetRS (10 μM) was titrated against the ligands in 0.1 M Hepes, pH 7.5, containing 0.3 M NaCl, 10 mM MgCl2, 5% glycerol in the absence or presence of AMP or ATP at a 5 mM final concentration. To avoid nucleotide dilution, AMP/ATP was added to both ligand and receptor solutions. The ligands were added to the protein solutions kept in a 2-ml experimental cell using a titration syringe. The reactions were performed at 20 °C under agitation (200 rpm), starting with a first injection of 2 μl of ligand solution (200 μM) during 4 s, followed by 27 injections of 10 μl with 200-s intervals between injections. Titration results were corrected for ligand dilution, and all the data were analyzed using Origin7.0 software.

Test [4] addresses T1, XcMetRS (WT).
Experimental: Inhibition studies using the XcMetRS-ScAMD-CjIMPDH-diaphorase–coupled assay (Fig. S2) were performed at various concentrations (half-log serial dilutions starting at 100 μM) of the inhibitors in anhydrous dimethyl sulfoxide (DMSO). Assays were performed at 25 °C in black 384-well microplates in 25-μl final volume in 0.1 M Tris HCl, pH 7.5, 0.15 M KCl, 10 mM MgCl2, and 0.01% Triton X-100. […] Plots were prepared in GraphPad Prism.

≈ marks a conversion by molar mass, not a printed value. Where “and” joins values, the source holds several entries; their conditions need not be identical. Equal values may be shown once. Read-outs that look alike come from different tables or passages of the source.

T1 sequence (Q8PMP0 whole entry): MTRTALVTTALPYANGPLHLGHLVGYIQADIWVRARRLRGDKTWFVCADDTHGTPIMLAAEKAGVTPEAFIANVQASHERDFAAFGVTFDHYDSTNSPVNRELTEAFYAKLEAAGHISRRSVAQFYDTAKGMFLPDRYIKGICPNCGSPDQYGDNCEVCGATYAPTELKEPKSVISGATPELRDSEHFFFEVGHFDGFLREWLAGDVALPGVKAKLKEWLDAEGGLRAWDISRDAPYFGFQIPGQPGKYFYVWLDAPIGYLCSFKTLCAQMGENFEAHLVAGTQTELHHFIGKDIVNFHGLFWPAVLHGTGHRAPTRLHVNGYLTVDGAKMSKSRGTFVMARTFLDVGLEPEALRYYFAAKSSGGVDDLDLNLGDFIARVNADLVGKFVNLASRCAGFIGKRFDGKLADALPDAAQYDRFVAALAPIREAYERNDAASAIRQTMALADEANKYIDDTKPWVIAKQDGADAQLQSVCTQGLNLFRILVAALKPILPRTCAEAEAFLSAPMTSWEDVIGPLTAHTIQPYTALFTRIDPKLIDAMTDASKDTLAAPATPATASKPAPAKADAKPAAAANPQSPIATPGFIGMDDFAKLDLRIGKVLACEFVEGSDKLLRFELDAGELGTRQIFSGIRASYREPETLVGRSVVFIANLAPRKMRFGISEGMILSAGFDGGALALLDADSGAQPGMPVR
T2 sequence (Q8PMP0 whole entry): as above
Experimental for X. citri 306: (§1) X. citri 306 was cultivated on LBON medium (10 g/l tryptone; 5 g/l yeast extract; pH 7.0) at 28 °C. The susceptibility to distinct antibiotics was evaluated using the disc-diffusion method. Briefly, a bacterial suspension was prepared in sterile saline solution (0.85% NaCl) to an optical density of 0.1 (approximately 1.5 × 10^8 CFU/ml) and used to inoculate the surface of an LBON-agar plate (1.7% agar; 150 × 15 mm Petri dish; 55 ml/dish). Antibiotic discs were applied 15 min after inoculum, and after incubation for 24 h at 28 °C, images were recorded with a camera. The minimum inhibitory concentration was obtained through broth microdilution method. These assays were performed with eight replicates for each compound concentration. Serial 2-fold dilutions of compounds were prepared in DMSO and 1 μl transferred to sterile 96-well assay plates containing 49 μl of the culture media (LBON). Then, 50 μl of a bacterial suspension (1 × 10^6 CFU/ml) was added to each well. Plates were incubated at 28 °C for 24 h before addition of 10 μl of resazurin 0.02%. After a new incubation (up to 4 h), the fluorescence (λExc/Em = 570–615 nm) was measured using a plate reader (CLARIOstar, BMG LabTech). Blanks were prepared with culture media. Positive and negative controls were prepared with DMSO and tetracycline (10 μg/ml).
Experimental for X. citri strain 306: as §1

With `Nc1ncnc2c1ncn2[C@@H]1O[C@H](COP(=O)(O)OP(=O)(O)OP(=O)(O)O)[C@@H](O)[C@H]1O` [ATP], the turnover number (kcat) on XcMetRS (WT) [1] (ATP as varied substrate) was 0.33 ± 0.005 s⁻¹. The “h (Hill slope)” value on XcMetRS (WT) [1] (ATP varied) is 3.3. At XcMetRS (WT) [1] (ATP varied, L-Met 200 μM), the “K’” value is listed as 0.95 ± 0.08 mM. In addition, the Tm on XcMetRS (WT) [2] (ligand 5 mM) is listed as 51.3 ^oC; on XcMetRS (WT) [2] (ligand 5 mM, listed as ATP:Mg), 51,3 ± 0,3 ^oC. For the same molecule, the Tm shift at XcMetRS (WT) [2] (ligand alone) amounted to 3.0 °C.
For the molecule `C[C@H]1[C@H](NC(=O)/C(=N\OC(C)(C)C(=O)O)c2csc(N)n2)C(=O)N1S(=O)(=O)O` [Aztreonam], the “susceptibility phenotype of X. citri in antibiogram” value (“susceptibility phenotype” below) with X. citri strain 306 is given as “resistant”.
As for `CSCC[C@H](N)C(=O)O` [L-Met, L-methionine], the catalytic constant (kcat) at XcMetRS (WT) [1] (L-Met as varied substrate) stood at 0.2062 ± 0.00467 s⁻¹. Also, on XcMetRS (WT) [2] (ligand 5 mM), the Tm is listed as 55,9 ± 0,2 ^oC.
Turning to `O=c1cc(NCCCN[C@@H]2CCOc3c(Br)cc(Br)cc32)[nH]c2ccsc12` [REP3123], in the test on X. citri 306, the “MIC (minimum inhibitory concentration)” value was greater than 128 µg/mL, the EC50 was 60.5 ± 1 µg/mL (≈ 118 µM) and the MIC was greater than 128 µg/mL. The 50% inhibitory concentration (IC50) in test [3] worked out at 26400 nM. The Tm on XcMetRS (WT) [2] (ligand 25 µM) is 47,9 ± 0,1 ^oC. In addition, the Tm on XcMetRS (WT) [2] (ligand + ATP:Mg) is 50,7 ± 0,1 ^oC.
As for `C=C(F)c1sc(CNCCCNc2cc(O)c3ccccc3n2)c(C)c1Br` [REP8839], at XcMetRS (in the presence of AMP (5 mM)), the Kd is 630 nM and 600 nM. In addition, the equilibrium dissociation constant (Kd) at XcMetRS (in the presence of ATP (5 mM)) was 1370 nM and 1400 nM. Also, the KD result at XcMetRS (in the absence of nucleotides) is “no KD for REP8839 could be measured”. Further, in the test on X. citri 306, the “MIC (minimum inhibitory concentration)” value was 64 µg/mL (≈ 142 µM), the 50% effective concentration (EC50) was found to be 25.5 ± 1 µg/mL (≈ 56.6 µM) and the MIC is 64 µg/mL (≈ 142 µM). The IC50 on XcMetRS (WT) [4] was determined as 20800 ± 6500 nM. For the same molecule, at XcMetRS (WT) [2] (ligand 25 µM), the Tm is 50,6 ± 0,1 ^oC. Besides, the Tm on XcMetRS (WT) [2] (ligand + ATP:Mg) is reported as 52,8 ± 0,1 ^oC.
On to `CC1(C)S[C@@H]2[C@H](NC(=O)[C@H](N)c3ccc(O)cc3)C(=O)N2[C@H]1C(=O)O` [amoxicillin], for which the “susceptibility phenotype” value in the test with X. citri strain 306 was “resistant”.
Turning to `CC1(C)S[C@@H]2[C@H](NC(=O)[C@H](N)c3ccccc3)C(=O)N2[C@H]1C(=O)O` [ampicillin], in the test with X. citri strain 306, the “susceptibility phenotype” value was “resistant”.
Still for that read-out and setting: the entry for `N[C@@H](C(=O)N[C@@H]1C(=O)N2C(C(=O)O)=C(Cl)CS[C@H]12)c1ccccc1` [cefaclor] is “resistant”; for `CO/N=C(\C(=O)N[C@@H]1C(=O)N2C(C(=O)[O-])=C(C[N+]3(C)CCCC3)CS[C@H]12)c1csc(N)n1` [cefepime] it is “resistant”; for `CO/N=C(\C(=O)N[C@@H]1C(=O)N2C(C(=O)O)=C(COC(C)=O)CS[C@H]12)c1csc(N)n1` [cefotaxime] it is “resistant”.
For the molecule `CO[C@@]1(NC(=O)Cc2cccs2)C(=O)N2C(C(=O)O)=C(COC(N)=O)CS[C@@H]21` [cefoxitin], the “susceptibility phenotype” value in the test on X. citri strain 306 was “resistant”.
For the molecule `CC(C)(O/N=C(\C(=O)N[C@@H]1C(=O)N2C(C(=O)[O-])=C(C[n+]3ccccc3)CS[C@H]12)c1csc(N)n1)C(=O)O` [ceftazidime], the “susceptibility phenotype” value in the test with X. citri strain 306 is “resistant”.
For the molecule `CO/N=C(\C(=O)N[C@@H]1C(=O)N2C(C(=O)O)=C(CSc3nc(=O)c(=O)[nH]n3C)CS[C@H]12)c1csc(N)n1` [ceftriaxone], in the test on X. citri strain 306, the “susceptibility phenotype” value is “resistant”.
Take `CC(=O)OCC1=C(C(=O)O)N2C(=O)[C@@H](NC(=O)Cc3cccs3)[C@H]2SC1` [cephalothin]: the “susceptibility phenotype” value in the test on X. citri strain 306 is “resistant”.
The same measure, in the same setting: the entry for `C[C@@H](O)[C@H]1C(=O)N2C(C(=O)O)=C(SCCN=CN)C[C@H]12` [imipenem] is “resistant”; for `O=C1CN(/N=C/c2ccc([N+](=O)[O-])o2)C(=O)N1` [nitrofurantoin] it is “resistant”.
For `NC[C@H]1O[C@H](O[C@H]2[C@H](O)[C@@H](O[C@H]3O[C@H](CO)[C@@H](O)[C@H](N)[C@H]3O)[C@H](N)C[C@@H]2N)[C@H](N)C[C@@H]1O` [tobramycin], in the test with X. citri strain 306, the “susceptibility phenotype” value is “close to breakpoint values considered for a resistant phenotype”.
With neomycin, in the test with X. citri strain 306, the “susceptibility phenotype” value is on record as “close to breakpoint values considered for a resistant phenotype”.

The values are drawn from publication PMC8165550, “Molecular basis for diaryldiamine selectivity and competition with tRNA in a type 2 methionyl-tRNA synthetase from a Gram-negative bacterium” (The Journal of Biological Chemistry, 2021).
